Assay results from PubChem BioAssay (NCI).
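Following 48 hours of exposure in 96-well plates, responses at five concentrations were used to interpolate endpoints linearly. Definition used: TGI = concentration required for complete inhibition of growth.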

Legend:
Assay in all cases: inhibition of tumour cell growth, NCI panel, 48 h
A498 renal = system: A498 renal
SNB-19 CNS = system: SNB-19 CNS
OVCAR-5 ovarian = system: OVCAR-5 ovarian
KM12 colon = system: KM12 colon
HCT-15 colon = system: HCT-15 colon
COLO 205 colon = system: COLO 205 colon
K-562 leukemia = system: K-562 leukemia
SK-MEL-2 melanoma = system: SK-MEL-2 melanoma

SMILES | TGI (A498 renal) [µM] | TGI (SNB-19 CNS) [µM] | TGI (OVCAR-5 ovarian) [µM] | TGI (KM12 colon) [µM] | TGI (HCT-15 colon) [µM] | TGI (COLO 205 colon) [µM] | TGI (K-562 leukemia) [µM] | TGI (SK-MEL-2 melanoma) [µM]
CN(CCCN1C(=O)c2cccc3cc([N+](=O)[O-])cc(c23)C1=O)CCN(C)CCCN1C(=O)c2cccc3cc([N+](=O)[O-])cc(c23)C1=O | > 39.3 | > 39.3 | > 39.3 | > 39.3 | > 39.3 | > 39.3 | > 39.3 | > 39.3
CCOC(=O)C(=O)Nc1c(C)cccc1C(C)(C)C |  | > 100 | > 100 | > 100 | > 100 | > 100 | > 100 | > 100
COc1cccc2c(SCC(=O)Nc3ccccc3-c3ccccc3NC(=O)CSc3c4ccccc4nc4c(OC)cccc34)c3ccccc3nc12 |  | > 100 | > 100 | > 100 | > 100 | > 100 | > 100 | > 100
O=C(COC(=O)c1cccc2c(=O)c3ccccc3[nH]c12)Nc1ccc(Cl)cc1 | 60 | > 100 |  | > 100 |  | > 100 | > 100 | 
C=CC(=O)Nc1ccccc1CC(c1c[nH]c2ccccc12)c1c[nH]c2ccccc12 |  | 31.8 |  | 38.7 | 38.7 | 30.9 | 49.2 | 32.7
O=C(O)/C(Cl)=C(Cl)/C=N/NC(=O)c1cc2ccccc2cc1O | > 100 | > 100 | 61.5 | > 100 | > 100 | > 100 | > 100 | 79.3
CCCCCN(CCCCC)C(=O)[C@H](CCC(=O)O)NC(=O)c1cc2ccccc2[nH]1 | > 100 | > 100 | > 100 | > 100 | > 100 | > 100 | > 100 | > 100
CC1(C2COC(=O)C2)SCCCS1 (stereo not drawn) |  | > 100 |  | > 100 | > 100 | > 100 |  | > 100
Cc1ccc(C2[C@H]3C(=O)N(c4ccc(Cc5ccc(N6C(=O)[C@@H]7ON(c8ccccc8)C(c8ccc(C)cc8)[C@@H]7C6=O)cc5)cc4)C(=O)[C@H]3ON2c2ccccc2)cc1 (stereo partly drawn) | > 100 |  | > 100 | > 100 | > 100 | > 100 | > 100 | > 100
C[C@]12Cc3conc3C(O)=C1CC[C@@H]1C2CC[C@@]2(C)C1CC[C@]2(C)O (stereo partly drawn) | 51.9 | > 100 | 92.2 | 64.9 | > 100 | 52.1 | 87.8 | 39.3
COC(=O)c1ccc(C(=O)OC)c2nc3cc(Cl)ccc3nc12 | > 100 | > 100 | > 100 | > 100 | > 100 | > 100 | > 100 | > 100
Nn1c(-c2cccc(Cl)c2)nc2ccccc2c1=O | > 100 | > 100 | > 100 | > 100 | > 100 | > 100 | > 100 | > 100
N#CC(C(=N/O)/C(=N\O)C(C#N)c1ccccc1)c1ccccc1 (stereo not drawn) | > 100 | > 100 | > 100 | > 100 | > 100 | > 100 | > 100 | > 100
Cc1ccc(C)c(NC(=O)C(=O)C2C(=O)N(c3ccccc3)N=C2N)c1 (stereo not drawn) | > 100 | > 100 | > 100 | > 100 | > 100 |  | > 100 | > 100
CN(C)N=Nc1cccc(C(N)=O)c1 | > 100 | > 100 |  | > 100 | > 100 | > 100 | > 100 | > 100
O=[N+]([O-])c1ccc(C2SCc3nc4ccccc4n32)cc1 (stereo not drawn) | > 100 | > 100 | > 100 | > 100 |  | > 100 | > 100 | > 100
COc1cc([C@@H]2OC(=O)C3C2C(=O)O[C@H]3c2ccc(O)c(OC)c2)ccc1O (stereo partly drawn) | > 100 | > 100 | > 100 | > 100 | > 100 | > 100 | > 100 | 
O=C(Nc1ccc([N+](=O)[O-])cc1[N+](=O)[O-])C(=O)C(C(=O)c1ccc(Cl)c(Cl)c1)C1OC(=O)c2ccccc21 (stereo not drawn) | 68.8 | 66.7 | 65.9 | 37 | 76.7 | 48.4 | 82 | 
CCOC(=O)/C(C#N)=C\Sc1ccccc1 |  | > 100 | 58.6 | > 100 |  | 38.4 | > 100 | 74.3
COC(=O)C12C34C=CC5(CCC6(C=CC1(CC3)O6)C52C(=O)OC)O4 (stereo not drawn) | > 100 | > 100 | > 100 | > 100 |  | > 100 | > 100 | > 100
CC(C)N1C(C)[C@@H](c2ccccc2)O[P@@]1(=O)CC1=CCCCC1 (stereo partly drawn) | > 100 |  | > 100 | > 100 | > 100 | > 100 | > 100 | > 100
